Source: BindingDB's records for doi:10.1021/jm801242y (Boehringer Ingelheim Pharmaceuticals, 2009)

Target: Serine/threonine-protein kinase pim-2 (Homo sapiens, UniProt Q9P1W9)
Experiment: Pim Kinase Dose-Response Assay
Conditions: pH 7.5; 22 °C

Serine/threonine-protein kinase pim-2, sequence (Q9P1W9 whole entry): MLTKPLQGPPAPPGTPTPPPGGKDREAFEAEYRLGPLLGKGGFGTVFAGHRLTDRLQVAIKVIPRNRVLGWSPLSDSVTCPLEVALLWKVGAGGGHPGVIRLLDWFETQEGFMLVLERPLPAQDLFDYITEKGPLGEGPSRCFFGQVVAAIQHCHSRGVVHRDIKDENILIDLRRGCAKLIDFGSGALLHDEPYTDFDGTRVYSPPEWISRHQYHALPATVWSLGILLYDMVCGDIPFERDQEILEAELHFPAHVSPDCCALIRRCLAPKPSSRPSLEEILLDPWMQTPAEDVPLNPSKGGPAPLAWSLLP

IC50 | Structure (SMILES)
160 nM | CN1CCCN(c2cncc(-c3cccc(C=Cc4nnn[nH]4)c3)n2)CC1 [1-methyl-4-(6-{3-[(E)-2-(1H-1,2,3,4-tetrazol-5-yl)ethenyl]phenyl}pyrazin-2-yl)-1,4-diazepane]
> 8000 nM | CN1CCCN(c2cnccn2)CC1 [1-methyl-4-(pyrazin-2-yl)-1,4-diazepane]
